Assay results as given in patent US20240360114A1 (SIRONAX LTD., priority 2021, published 2024).

Each molecule was assayed on HT-1080 cells (assay: HT-1080 cell viability assay (ferroptosis induced by RSL3, Cell Titer-Glo)). Settings: Homo sapiens, HT-1080, 20 h, ferroptosis inducer RSL3, 20 hours, ferroptosis inhibitory activity, Table 2.
Type: cell-based
In short: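 Cells seeded overnight, then co-treated with RSL3 and compound (3-fold, 10-point dilution, top 1.1 μM) for 20 hours. Viability by CellTiter-Glo luminescence, normalized to untreated controls; EC50 from sigmoidal non-linear regression.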

| Structure (SMILES) | EC50 [nM] |
| --- | --- |
| CC1(C)CCC(c2ccc(NC3CCC(CNC(=O)C4CNC(=O)C4)CC3)cc2)CC1 (single isomer, unassigned) [Compound 106A] | 0.1 to 100 |
| CC(C)(C)c1ccc(NC2CCC(CCN)CC2)cc1 (single isomer, unassigned) [Compound 200A, N-(4-(2-aminoethyl)cyclohexyl)-4-(tert-butyl)aniline] | 0.1 to 100 |
| NC1CCC(Nc2ccc(C3CCC(F)(F)CC3)cc2)CC1 (stereo not drawn) [Compound 251A, N1-(4-(4.4-difluorocyclohexyl)phenyl)cyclohexane-1,4-diamine] | 0.1 to 100 |
| Cc1nc(N2CC(C)OC(C)C2)ccc1NCCC1CCC(N)C1 (stereo not drawn) [Compound 490, N-(2-(3-aminocyclopentyl)ethyl)-6-(2,6-dimethylmorpholino)-2-methylpyridin-3-amine] | 0.1 to 100 |
| NC[C@@H]1CCC(Nc2ccc(N3CCC(C(F)(F)F)CC3)cc2)[C@@H](N)C1 (stereo partly drawn) [Compound 503, (2S, 4R)-4-(aminomethyl)-N1-(4-(4-(trifluoromethyl)piperidin-1-yl)phenyl)cyclohexane-1,2-dia mine bis(2,2,2-trifluoroacetate)] | 0.1 to 100 |
| NNC(=O)C1CC2(CC(Nc3cnc(N4CCC(C(F)(F)F)CC4)nc3)C2)C1 (stereo not drawn) [Compound 427, 6-((2-(4-(trifluoromethyl)piperidin-1-yl)pyrimidin-5-yl)amino)spiro[3.3]heptane-2-carbohydrazide] | 0.1 to 100 |
| CC1CN(c2ccc(NC3C4CC5CC3CC(N)(C5)C4)cc2)CC(C)O1 (stereo not drawn) [Compound 421A, N^4-(4-(2,6-dimethylmorpholino)phenyl)adamantane-1,4-diamine] | 0.1 to 100 |
| CN1CCN(CC(=O)N2CCC(Nc3ccc(C(C)(C)C)cc3)CC2)C(=O)C1 [Compound 245, 1-(2-(4-((4-(tert-butyl)phenyl)amino)piperidin-1-yl)-2-oxoethyl)-4-methylpiperazin-2-one] | 1000 to 10000 |
| NC1CC2(C1)CC(Nc1ccc(N3CCN(CC(F)(F)F)CC3)cc1)C2 (stereo not drawn) [Compound 505, N2-(4-(4-(2,2,2-trifluoroethyl)piperazin-1-yl)phenyl)spiro[3.3]heptane-2,6-diamine] | 0.1 to 100 |
| Cc1cc(N2CCC(C(F)(F)F)CC2)c(F)cc1NC1CCC(N)CC1 (stereo not drawn) [Compound 58, N1-(5-fluoro-2-methyl-4-(4-(trifluoromethyl)piperidin-1-yl)phenyl)cyclohexane-1,4-diamine] | 0.1 to 100 |
| CC1(C)CCC(c2ccc(NC3CCC(N)CC3)cc2)CC1 (single isomer, unassigned) [Compound 120A, N1-(4-(4,4-dimethylcyclohexyl)phenyl)cyclohexane-1,4-diamine] | 0.1 to 100 |
| CC(C)(C)c1ccc(NC2CCC(CNC(=O)C3CNC(=O)C3)CC2)cc1 (single isomer, unassigned) [Compound 144A, N-((4-((4-(tert-butyl)phenyl)amino)cyclohexyl)methyl)-5-oxopyrrolidine-3-carboxamide] | 100 to 1000 |
| CC1CN(c2ccc(NC[C@H]3CC[C@H](N)CC3)cc2)CC(C)N1CC(F)(F)F (stereo partly drawn) [Compound 467, N-(((1r,4r)-4-aminocyclohexyl)methyl)-4-(3,5-dimethyl-4-(2,2,2-trifluoroethyl)piperazin-1-yl)aniline] | 0.1 to 100 |
| Cc1cc(N2CC(C)OC(C)C2)ccc1NC1CCCCC1N (stereo not drawn) [Compound 442, N1-(4-(2,6-dimethylmorpholino)-2-methylphenyl)cyclohexane-1,2-diamine] | 100 to 1000 |
| CCc1nc(N2C[C@@H](C)O[C@@H](C)C2)ccc1NC[C@H]1CC[C@H](N)CC1 [Compound 544, N-(((1r,4R)-4-aminocyclohexyl)methyl)-6-((2S,6R)-2,6-dimethylmorpholino)-2-ethylpyridin-3-amine] | 0.1 to 100 |
| CC1(N)CCC(Nc2ccc(N3CCC(C(F)(F)F)CC3)cc2)CC1 (stereo not drawn) [Compound 51, 1-methyl-N4-(4-(4-(trifluoromethyl)piperidin-1-yl)phenyl)cyclohexane-1,4-diamine] | 0.1 to 100 |
| CC1(C)CCC(c2ccc(NCCCCN)cc2)CC1 [Compound 225, N1-(4-(4,4-dimethylcyclohexyl)phenyl) butane-1,4-diamine] | 0.1 to 100 |

| Structure (SMILES) | EC50 [nM] |
| --- | --- |
| CC1(C)CCC(c2ccc(NC3CCC(N)C3)cc2)CC1 (single isomer, unassigned) [Compound 121A, N1-(4-(4,4-dimethylcyclohexyl)phenyl)cyclopentane-1,3-diamine] | 0.1 to 100 |
| CC(C)(C)c1cccc(NC2CCC(N)CC2)c1 (single isomer, unassigned) [Compound 153A, N1-(3-(tert-butyl)phenyl)cyclohexane-1,4-diamine] | 100 to 1000 |
| CC(=O)N1C(C)CN(c2ccc(NC3CC4(CC(N)C4)C3)c(C)n2)CC1C (stereo not drawn) [Compound 555, 1-(4-(5-((6-aminospiro[3.3]heptan-2-yl)amino)-6-methylpyridin-2-yl)-2,6-dimethylpiperazin-1-yl)ethan-1-one] | 0.1 to 100 |
| CC1(C)CCC(c2ccc(NC3CCC(NC(=O)[C@H]4CNC(=O)N4)CC3)cc2)CC1 (single isomer, unassigned) [Compound 156A] | 0.1 to 100 |
| CC(C)(C)c1ccc(NC2CCC(N)C(O)C2)cc1 (stereo not drawn) [Compound 327, 2-amino-5-((4-(tert-butyl)phenyl)amino)cyclohexan-1-ol] | 100 to 1000 |
| CC1CN(c2ccc(NC[C@H]3CC[C@H](N)CC3)c(C(F)(F)F)c2)CC(C)O1 (stereo partly drawn) [Compound 466, N-(((1r,4r)-4-aminocyclohexyl)methyl)-4-(2,6-dimethylmorpholino)-2-(trifluoromethyl)aniline] | 100 to 1000 |
| CC(CN1CCCC1)Nc1ccc(C2CCC(C)(C)CC2)cc1 (stereo not drawn) [Compound 297, 4-(4,4-dimethylcyclohexyl)-N-(1-(pyrrolidin-1-yl)propan-2-yl)aniline] | 0.1 to 100 |
| CC(C)C1CCN(c2ncc(NC3CCNC3)cn2)CC1 (stereo not drawn) [Compound 36, 2-(4-isopropylpiperidin-1-yl)-N-(pyrrolidin-3-yl)pyrimidin-5-amine] | 0.1 to 100 |
| CC1(C)CCC(c2ccc(NC3CCC(N)(CO)CC3)cc2)CC1 (stereo not drawn) [Compound 275A] | 0.1 to 100 |
| CC(C)(C)c1ccc(NCC2CCC(CN)C2)cc1 (stereo not drawn) [Compound 340, N-((3-(aminomethyl)cyclopentyl)methyl)-4-(tert-butyl)aniline] | 0.1 to 100 |
| NC1CCC(Nc2ccc(C3CC3)cc2)CC1 (stereo not drawn) [Compound 181, N1-(4-cyclopropylphenyl)cyclohexane-1,4-diamine] | 100 to 1000 |
| NC1CCC(Nc2ccc3nc(N4CCC(C(F)(F)F)CC4)ccc3c2)CC1 (stereo not drawn) [Compound 562, N-(2-(4-(trifluoromethyl)piperidin-1-yl)quinolin-6-yl)cyclohexane-1,4-diamine] | 0.1 to 100 |
| CC(C)(C)Nc1ccc(N2CCC(C(F)(F)F)CC2)cc1 [Compound 11, N-(tert-butyl)-4-(4-(trifluoromethyl)piperidin-1-yl)aniline] | 100 to 1000 |
| Cc1cc(N2CCC(C(F)(F)F)C2)ccc1NC[C@H]1CC[C@H](N)CC1 (stereo partly drawn) [Compound 419, N-(((1r,4r)-4-aminocyclohexyl)methyl)-2-methyl-4-(3-(trifluoromethyl)pyrrolidin-1-yl)aniline] | 0.1 to 100 |
| CC(C)C1CCN(c2ncc(NC3CC(N)C3)cn2)CC1 (stereo not drawn) [Compound 28, N1-(2-(4-isopropylpiperidin-1-yl)pyrimidin-5-yl)cyclobutane-1,3-diamine] | 0.1 to 100 |
| O=C1NCC(C(=O)NC2CC3(C2)CC(Nc2ccc(N4CCC(C(F)(F)F)CC4)cc2)C3)N1 (stereo not drawn) [Compound 374, 2-oxo-N-(6-((4-(4-(trifluoromethyl)piperidin-1-yl)phenyl)amino)spiro[3.3]heptan-2-yl)imidazo lidine-4-carboxamide] | 0.1 to 100 |
| CCC(C)(C)c1ccc(NC2CC3(CC(N)C3)C2)cc1 (stereo not drawn) [Compound 369, N2-(4-(tert-pentyl)phenyl)spiro[3.3]heptane-2,6-diamine] | 0.1 to 100 |

Same assay, conditions: Homo sapiens, HT-1080, 20 h, ferroptosis inducer RSL3, 20 hours, ferroptosis inhibitory activity, Table 3

| Structure (SMILES) | EC50 [nM] |
| --- | --- |
| NC1CC(Nc2ccc3cc(N4CCN(CC(F)(F)F)CC4)ccc3c2)C1 (stereo not drawn) [Compound 593, N^1-(6-(4-(2,2,2-trifluoroethyl)piperazin-1-yl)naphthalen-2-yl)cyclobutane-1,3-diamine] | 0.1 to 100 |
| Cc1nc(N2C[C@@H](C)O[C@@H](C)C2)ccc1NCCC[C@H]1C[C@@H](N)C1 [Compound 578, N-(3-((1s,3R)-3-aminocyclobutyl)propyl)-6-((2S,6R)-2,6-dimethylmorpholino)-2-methylpyridin-3-amine] | 0.1 to 100 |
| Cc1cc(NC2CC3(CC(N)C3)C2)ccc1N1CC(C)N(C(=O)C(F)(F)F)C(C)C1 (stereo not drawn) [Compound 647, 1-(4-(4-((6-aminospiro[3.3]heptan-2-yl)amino)-2-methylphenyl)-2,6-dimethylpiperazin-1-yl)-2,2,2-trifluoroethan-1-one] | 0.1 to 100 |
| Cc1nc(N2C[C@@H](C)O[C@@H](C)C2)ccc1NCC12C3C4C1C1C2C3C41CN (stereo partly drawn) [Compound 621, N-((4-(aminomethyl)cuban-1-yl)methyl)-6-((2S,6R)-2,6-dimethylmorpholino)-2-methylpyridin-3-amine] | 0.1 to 100 |
| CC1CN(c2ncc(NC3CC4(CC(N)C4)C3)cc2F)CC(C)N1CC(F)(F)F (stereo not drawn) [Compound 580, N^2-(6-(3.5-dimethyl-4-(2,2,2-trifluoroethyl)piperazin-1-yl)-5-fluoropyridin-3-yl)spiro[3.3]hept ane-2,6-diamine] | 0.1 to 100 |
| CNC1CC2(C1)CC(Nc1ccc(N3C[C@@H](C)O[C@@H](C)C3)nc1C)C2 (stereo partly drawn) [Compound 605, N^2-(6-((2R,6S)-2,6-dimethylmorpholino)-2-methylpyridin-3-yl)-N^6-methylspiro [3.3]heptane-2,6-diamine] | 0.1 to 100 |
| CN(CC(F)(F)F)c1ccc2cc(NC3CC(N)C3)ccc2n1 (stereo not drawn) [Compound 655, N^6-(3-aminocyclobutyl)-N^2-methyl-N^2-(2,2,2-trifluoroethyl) quinoline-2,6-diamine] | 0.1 to 100 |
| N[C@H]1CC[C@H](CNc2ccc(N3CCN(CC(F)(F)F)CC3)cc2F)CC1 [Compound 586, N-(((1r,4r)-4-aminocyclohexyl)methyl)-2-fluoro-4-(4-(2,2,2-trifluoroethyl)piperazin-1-yl)aniline] | 0.1 to 100 |
